# Experimental data reported in article PMC9133015 (Nature Communications, 2022).
# Several values for one entry are separate records, joined by “and”; a condition that tells them apart may be missing. Identical values can stand only once.
# Columns and labels:
# Test in all cases: Kinase inhibitor specificity profiling (Reaction Biology Corporation)
# Type in all cases: biochemical
# Parameters in all cases: % Enzyme Activity (relative to DMSO controls): concentration or dose not given beside the values
# [1] = molecular target: T1, panel of 370 protein kinases (Homo sapiens, UniProt O15264); settings: 2 h, kinase P38d/MAPK13; read-out: % Enzyme Activity (relative to DMSO controls)
# T1 construct: purchased Reaction Biology Corporation (assay service)
# [2] = molecular target: T2, panel of 370 protein kinases (Homo sapiens, UniProt O43781); settings: 2 h, kinase DYRK3; read-out: % Enzyme Activity (relative to DMSO controls)
# T2 construct: purchased Reaction Biology Corporation (assay service)
# [3] = molecular target: T3, panel of 370 protein kinases (Homo sapiens, UniProt O94921); settings: kinase CDK14/cyclin Y (PFTK1)
# T3 construct: purchased Reaction Biology Corporation (assay service)
# T3 sequence (O94921 whole entry): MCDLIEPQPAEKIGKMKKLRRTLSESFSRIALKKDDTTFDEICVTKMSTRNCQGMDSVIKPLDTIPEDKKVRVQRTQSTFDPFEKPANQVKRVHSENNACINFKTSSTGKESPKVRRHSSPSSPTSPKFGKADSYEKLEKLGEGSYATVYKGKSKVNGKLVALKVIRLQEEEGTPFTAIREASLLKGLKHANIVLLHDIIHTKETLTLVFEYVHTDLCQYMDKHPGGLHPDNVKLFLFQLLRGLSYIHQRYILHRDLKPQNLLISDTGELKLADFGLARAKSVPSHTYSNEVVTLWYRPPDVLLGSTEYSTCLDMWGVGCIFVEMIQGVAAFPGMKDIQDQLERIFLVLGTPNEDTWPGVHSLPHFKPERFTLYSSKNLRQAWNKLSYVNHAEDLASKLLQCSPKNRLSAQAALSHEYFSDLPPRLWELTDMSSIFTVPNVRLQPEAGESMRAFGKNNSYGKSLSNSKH
# [4] = molecular target: T4, panel of 370 protein kinases (Homo sapiens, UniProt P04629); settings: 2 h, kinase TRKA; read-out: % Enzyme Activity (relative to DMSO controls)
# T4 construct: purchased Reaction Biology Corporation (assay service)
# [5] = molecular target: T5, panel of 370 protein kinases (Homo sapiens, UniProt P11309); settings: 2 h, kinase PIM1; read-out: % Enzyme Activity (relative to DMSO controls)
# T5 construct: purchased Reaction Biology Corporation (assay service)
# [6] = molecular target: T6, panel of 370 protein kinases (Homo sapiens, UniProt P16234); settings: 2 h, kinase PDGFRa; read-out: % Enzyme Activity (relative to DMSO controls)
# T6 construct: purchased Reaction Biology Corporation (assay service)
# T6 sequence (P16234 24-1089): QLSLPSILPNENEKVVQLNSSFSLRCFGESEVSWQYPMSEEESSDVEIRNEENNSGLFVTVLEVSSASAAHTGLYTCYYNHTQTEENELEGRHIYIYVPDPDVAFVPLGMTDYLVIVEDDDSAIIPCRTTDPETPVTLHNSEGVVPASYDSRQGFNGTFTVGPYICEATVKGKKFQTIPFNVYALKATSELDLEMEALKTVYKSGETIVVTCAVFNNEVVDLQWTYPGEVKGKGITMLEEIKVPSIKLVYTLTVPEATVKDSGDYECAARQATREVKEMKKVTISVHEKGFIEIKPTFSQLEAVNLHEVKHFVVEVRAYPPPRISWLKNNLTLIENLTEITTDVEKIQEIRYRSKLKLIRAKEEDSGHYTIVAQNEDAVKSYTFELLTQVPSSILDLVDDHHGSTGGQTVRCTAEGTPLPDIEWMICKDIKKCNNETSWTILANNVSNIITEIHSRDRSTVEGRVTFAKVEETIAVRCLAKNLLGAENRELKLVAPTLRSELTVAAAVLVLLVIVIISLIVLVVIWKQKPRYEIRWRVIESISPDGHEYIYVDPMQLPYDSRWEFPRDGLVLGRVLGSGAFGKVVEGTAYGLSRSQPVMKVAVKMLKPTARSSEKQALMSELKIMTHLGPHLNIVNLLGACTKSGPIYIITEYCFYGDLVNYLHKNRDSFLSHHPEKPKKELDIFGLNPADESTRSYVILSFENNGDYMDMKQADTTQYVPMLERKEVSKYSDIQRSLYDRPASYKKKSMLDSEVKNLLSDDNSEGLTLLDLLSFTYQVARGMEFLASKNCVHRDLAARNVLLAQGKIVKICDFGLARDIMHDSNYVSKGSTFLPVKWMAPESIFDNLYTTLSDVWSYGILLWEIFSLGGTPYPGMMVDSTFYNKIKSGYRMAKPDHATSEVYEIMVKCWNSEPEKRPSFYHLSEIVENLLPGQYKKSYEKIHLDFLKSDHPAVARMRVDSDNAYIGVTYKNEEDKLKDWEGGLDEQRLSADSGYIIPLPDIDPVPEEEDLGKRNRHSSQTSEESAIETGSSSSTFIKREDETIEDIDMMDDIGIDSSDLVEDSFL
# [7] = molecular target: T7, panel of 370 protein kinases (Homo sapiens, UniProt P49336); settings: kinase CDK8/cyclin C
# T7 construct: purchased Reaction Biology Corporation (assay service)
# T7 sequence (P49336 whole entry): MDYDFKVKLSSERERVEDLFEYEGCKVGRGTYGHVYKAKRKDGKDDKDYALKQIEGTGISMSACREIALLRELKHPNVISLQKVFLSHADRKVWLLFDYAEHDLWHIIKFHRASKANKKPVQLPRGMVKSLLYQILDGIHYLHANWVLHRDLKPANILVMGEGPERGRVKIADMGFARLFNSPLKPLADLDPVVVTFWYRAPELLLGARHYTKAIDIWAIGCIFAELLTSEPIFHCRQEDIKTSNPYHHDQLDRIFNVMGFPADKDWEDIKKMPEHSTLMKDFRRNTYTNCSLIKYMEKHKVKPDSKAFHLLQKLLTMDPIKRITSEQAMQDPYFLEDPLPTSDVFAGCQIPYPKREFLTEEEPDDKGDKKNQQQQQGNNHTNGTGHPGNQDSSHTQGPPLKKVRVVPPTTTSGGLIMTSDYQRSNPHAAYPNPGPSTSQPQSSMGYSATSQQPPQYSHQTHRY
# [8] = molecular target: T8, panel of 370 protein kinases (Homo sapiens, UniProt P52333); settings: 2 h, kinase JAK3; read-out: % Enzyme Activity (relative to DMSO controls)
# T8 construct: purchased Reaction Biology Corporation (assay service)
# [9] = molecular target: T9, panel of 370 protein kinases (Homo sapiens, UniProt P80192); settings: 2 h, kinase MLK1/MAP3K9; read-out: % Enzyme Activity (relative to DMSO controls)
# T9 construct: purchased Reaction Biology Corporation (assay service)
# [10] = molecular target: T10, panel of 370 protein kinases (Homo sapiens, UniProt Q05513); settings: 2 h, kinase PKCzeta; read-out: % Enzyme Activity (relative to DMSO controls)
# T10 construct: purchased Reaction Biology Corporation (assay service)
# [11] = molecular target: T11, panel of 370 protein kinases (Homo sapiens, UniProt Q13554); settings: 2 h, kinase CAMK2b; read-out: % Enzyme Activity (relative to DMSO controls)
# T11 construct: purchased Reaction Biology Corporation (assay service)
# [12] = molecular target: T12, panel of 370 protein kinases (Homo sapiens, UniProt Q15139); settings: 2 h, kinase PKCmu/PRKD1; read-out: % Enzyme Activity (relative to DMSO controls)
# T12 construct: purchased Reaction Biology Corporation (assay service)
# [13] = molecular target: T13, panel of 370 protein kinases (Homo sapiens, UniProt Q15208); settings: 2 h, kinase STK38/NDR1; read-out: % Enzyme Activity (relative to DMSO controls)
# T13 construct: purchased Reaction Biology Corporation (assay service)
# T13 sequence (Q15208 whole entry): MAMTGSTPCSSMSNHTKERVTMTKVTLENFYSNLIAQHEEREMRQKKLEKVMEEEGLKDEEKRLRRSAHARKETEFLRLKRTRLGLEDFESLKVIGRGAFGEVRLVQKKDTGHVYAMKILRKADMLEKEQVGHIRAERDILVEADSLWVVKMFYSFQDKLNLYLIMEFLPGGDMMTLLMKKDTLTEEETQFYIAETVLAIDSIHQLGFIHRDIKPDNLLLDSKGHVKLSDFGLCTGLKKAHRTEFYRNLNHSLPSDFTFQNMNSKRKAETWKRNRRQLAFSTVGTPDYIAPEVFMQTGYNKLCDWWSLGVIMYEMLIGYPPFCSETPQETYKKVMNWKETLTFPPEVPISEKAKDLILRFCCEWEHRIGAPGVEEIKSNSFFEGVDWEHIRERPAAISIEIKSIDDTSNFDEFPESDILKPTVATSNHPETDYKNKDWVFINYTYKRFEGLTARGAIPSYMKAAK
# [14] = molecular target: T14, panel of 370 protein kinases (Homo sapiens, UniProt Q16539); settings: kinase P38a/MAPK14
# T14 construct: purchased Reaction Biology Corporation (assay service)
# T14 sequence (Q16539 whole entry): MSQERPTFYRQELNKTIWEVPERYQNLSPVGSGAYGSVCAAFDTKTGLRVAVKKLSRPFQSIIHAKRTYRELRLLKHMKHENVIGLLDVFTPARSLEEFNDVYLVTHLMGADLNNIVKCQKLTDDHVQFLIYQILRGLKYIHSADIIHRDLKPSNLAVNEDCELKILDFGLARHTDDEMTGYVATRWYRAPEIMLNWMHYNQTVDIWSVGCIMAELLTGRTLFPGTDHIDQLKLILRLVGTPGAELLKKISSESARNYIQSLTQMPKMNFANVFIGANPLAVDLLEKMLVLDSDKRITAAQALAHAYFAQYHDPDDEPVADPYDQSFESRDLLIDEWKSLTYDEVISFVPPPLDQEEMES
# [15] = molecular target: T15, panel of 370 protein kinases (Homo sapiens, UniProt Q16832); settings: 2 h, kinase DDR2; read-out: % Enzyme Activity (relative to DMSO controls)
# T15 construct: purchased Reaction Biology Corporation (assay service)
# [16] = molecular target: T16, panel of 370 protein kinases (Homo sapiens, UniProt Q6P2M8); settings: kinase CAMK1b
# T16 construct: purchased Reaction Biology Corporation (assay service)
# T16 sequence (Q6P2M8 whole entry): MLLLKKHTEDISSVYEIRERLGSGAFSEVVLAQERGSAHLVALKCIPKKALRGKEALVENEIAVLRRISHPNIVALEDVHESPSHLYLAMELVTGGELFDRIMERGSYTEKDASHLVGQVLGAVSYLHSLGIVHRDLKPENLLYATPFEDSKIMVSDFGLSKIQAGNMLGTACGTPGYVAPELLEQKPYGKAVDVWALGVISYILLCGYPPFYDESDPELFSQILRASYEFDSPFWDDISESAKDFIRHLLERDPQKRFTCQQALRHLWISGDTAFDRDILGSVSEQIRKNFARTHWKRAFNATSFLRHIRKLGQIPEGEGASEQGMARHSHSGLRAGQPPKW
# [17] = molecular target: T17, panel of 370 protein kinases (Homo sapiens, UniProt Q6VAB6); settings: 2 h, kinase KSR2; read-out: % Enzyme Activity (relative to DMSO controls)
# T17 construct: purchased Reaction Biology Corporation (assay service)
# [18] = molecular target: T18, panel of 370 protein kinases (Homo sapiens, UniProt Q8IWQ3); settings: 2 h, kinase BRSK2; read-out: % Enzyme Activity (relative to DMSO controls)
# T18 construct: purchased Reaction Biology Corporation (assay service)
# [19] = molecular target: T19, panel of 370 protein kinases (Homo sapiens, UniProt Q8WTQ7); settings: 2 h, kinase GRK7; read-out: % Enzyme Activity (relative to DMSO controls)
# T19 construct: purchased Reaction Biology Corporation (assay service)
# T19 sequence (Q8WTQ7 whole entry): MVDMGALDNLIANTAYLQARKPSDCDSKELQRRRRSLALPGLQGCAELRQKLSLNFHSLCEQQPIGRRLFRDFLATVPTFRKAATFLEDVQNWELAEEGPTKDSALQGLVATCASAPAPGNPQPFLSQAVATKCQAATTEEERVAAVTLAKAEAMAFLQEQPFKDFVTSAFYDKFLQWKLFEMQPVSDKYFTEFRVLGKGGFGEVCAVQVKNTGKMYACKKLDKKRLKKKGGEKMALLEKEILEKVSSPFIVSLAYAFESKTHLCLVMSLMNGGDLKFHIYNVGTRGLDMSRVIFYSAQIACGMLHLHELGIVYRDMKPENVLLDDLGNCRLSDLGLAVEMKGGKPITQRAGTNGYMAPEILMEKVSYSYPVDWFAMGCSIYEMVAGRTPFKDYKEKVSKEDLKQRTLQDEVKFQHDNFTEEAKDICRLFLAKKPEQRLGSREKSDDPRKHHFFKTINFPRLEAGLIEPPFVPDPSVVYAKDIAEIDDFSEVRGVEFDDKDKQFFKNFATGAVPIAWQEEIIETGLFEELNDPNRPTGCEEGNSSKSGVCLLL
# [20] = molecular target: T20, panel of 370 protein kinases (Homo sapiens, UniProt Q9HCP0); settings: kinase CK1g1
# T20 construct: purchased Reaction Biology Corporation (assay service)
# T20 sequence (Q9HCP0 whole entry): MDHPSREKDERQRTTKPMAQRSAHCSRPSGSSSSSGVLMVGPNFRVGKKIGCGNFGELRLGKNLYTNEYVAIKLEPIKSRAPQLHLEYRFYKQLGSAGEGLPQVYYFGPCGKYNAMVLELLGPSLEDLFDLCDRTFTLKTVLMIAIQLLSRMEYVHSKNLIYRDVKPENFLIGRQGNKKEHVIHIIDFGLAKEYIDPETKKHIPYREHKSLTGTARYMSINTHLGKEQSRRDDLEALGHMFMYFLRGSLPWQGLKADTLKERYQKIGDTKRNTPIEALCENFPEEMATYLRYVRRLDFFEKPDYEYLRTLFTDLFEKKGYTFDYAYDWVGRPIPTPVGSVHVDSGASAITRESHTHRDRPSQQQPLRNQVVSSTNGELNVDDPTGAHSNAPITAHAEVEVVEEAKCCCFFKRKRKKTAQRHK
# [21] = molecular target: T21, panel of 370 protein kinases (Homo sapiens, UniProt Q9NYY3); settings: kinase PLK2
# T21 construct: purchased Reaction Biology Corporation (assay service)
# T21 sequence (Q9NYY3 whole entry): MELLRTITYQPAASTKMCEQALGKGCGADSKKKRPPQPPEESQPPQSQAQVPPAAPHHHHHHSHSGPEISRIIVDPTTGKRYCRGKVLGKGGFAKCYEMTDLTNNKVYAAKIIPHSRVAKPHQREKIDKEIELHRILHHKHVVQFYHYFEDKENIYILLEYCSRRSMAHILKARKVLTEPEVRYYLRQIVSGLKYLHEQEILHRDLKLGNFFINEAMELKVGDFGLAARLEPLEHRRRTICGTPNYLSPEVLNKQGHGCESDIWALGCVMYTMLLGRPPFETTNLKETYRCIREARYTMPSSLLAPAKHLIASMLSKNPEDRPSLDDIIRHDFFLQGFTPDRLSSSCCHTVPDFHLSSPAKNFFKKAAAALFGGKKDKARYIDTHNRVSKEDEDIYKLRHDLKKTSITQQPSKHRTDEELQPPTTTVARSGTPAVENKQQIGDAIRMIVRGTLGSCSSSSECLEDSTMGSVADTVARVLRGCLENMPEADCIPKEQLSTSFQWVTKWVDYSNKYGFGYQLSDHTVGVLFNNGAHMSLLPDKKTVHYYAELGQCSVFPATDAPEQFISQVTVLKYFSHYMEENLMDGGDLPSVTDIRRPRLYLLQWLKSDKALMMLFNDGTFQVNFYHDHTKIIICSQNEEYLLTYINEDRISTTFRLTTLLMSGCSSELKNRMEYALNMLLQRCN
# [22] = molecular target: T22, panel of 370 protein kinases (Homo sapiens, UniProt Q9Y572); settings: 2 h, kinase RIPK3; read-out: % Enzyme Activity (relative to DMSO controls)
# T22 construct: purchased Reaction Biology Corporation (assay service)
smiles,measurement,setting,value
CCN1CCN(C(=O)c2ccc(Nc3ncc(F)c(-c4ccc5nc(N(C)C)sc5c4)n3)nc2)CC1 [YK-2-69],remaining activity at 1 µM,[1],102%
same,remaining activity at 1 µM,[2],50.9%
same,% Enzyme Activity (relative to DMSO controls),[3],116.35% and 115.11%
same,remaining activity at 1 µM,[4],104%
same,remaining activity at 1 µM,[5],77%
same,remaining activity at 1 µM,[6],104%
same,% Enzyme Activity (relative to DMSO controls),[7],57.28% and 56.07%
same,remaining activity at 1 µM,[8],111%
same,remaining activity at 1 µM,[9],111%
same,remaining activity at 1 µM,[10],83.8%
same,remaining activity at 1 µM,[11],78.5%
same,remaining activity at 1 µM,[12],89.6%
same,remaining activity at 1 µM,[13],85.5%
same,% Enzyme Activity (relative to DMSO controls),[14],99.00% and 95.59%
same,remaining activity at 1 µM,[15],103%
same,% Enzyme Activity (relative to DMSO controls),[16],94.21% and 93.36%
same,remaining activity at 1 µM,[17],93%
same,remaining activity at 1 µM,[18],96.3%
same,remaining activity at 1 µM,[19],102%
same,% Enzyme Activity (relative to DMSO controls),[20],102.35% and 96.73%
same,% Enzyme Activity (relative to DMSO controls),[21],98.55% and 92.68%
same,remaining activity at 1 µM,[22],102%
